Among the data in DBAASP are MIC values, retold here.

Molecules are shown by their SMILES. Values after ≈ are worked out from the molar mass of the structure shown.

This assay has as its system Escherichia coli JW0013. Put plainly: ≥ marks a high value that may be exact or a test limit, other limits are often not marked, values filed in µg/mL are converted to µM.
As usually defined, the MIC is the smallest concentration in the dilution series that meets the test's criterion for growth inhibition. Read a low MIC as inhibition by little substance. With `CC[C@H](C)[C@H](NC(=O)[C@H](CCCN=C(N)N)NC(=O)[C@H](CCCN=C(N)N)NC(=O)[C@@H]1CCCN1C(=O)[C@@H]1CCCN1C(=O)[C@H](CCCN=C(N)N)NC(=O)[C@@H]1CCCN1C(=O)[C@H](CCCN=C(N)N)NC(=O)[C@@H]1CCCN1C(=O)[C@H](CC(C)C)NC(=O)[C@H](Cc1ccc(O)cc1)NC(=O)[C@@H]1CCCN1C(=O)[C@@H]1CCCN1C(=O)[C@H](CCCCN)NC(=O)[C@H](CC(=O)O)NC(=O)[C@@H](N)CC(C)C)C(=O)N[C@@H](Cc1ccc(O)cc1)C(=O)N[C@@H](CC(N)=O)C(=O)N[C@@H](CCCN=C(N)N)C(N)=O` [LDKPPYLPRPRPPRRIYNR], the MIC stood at 2 µM (≈ 4.8 µg/mL).

Consider `CC[C@H](C)[C@H](NC(=O)[C@H](CCCN=C(N)N)NC(=O)[C@H](CCCN=C(N)N)NC(=O)[C@@H]1CCCN1C(=O)[C@@H]1CCCN1C(=O)[C@H](CCCN=C(N)N)NC(=O)[C@@H]1CCCN1C(=O)[C@H](CCCN=C(N)N)NC(=O)[C@@H]1CCCN1C(=O)[C@H](CC(C)C)NC(=O)[C@H](Cc1ccc(O)cc1)NC(=O)[C@@H]1CCCN1C(=O)[C@@H]1CCCN1C(=O)[C@H](CCCCN)NC(=O)[C@H](Cc1c[nH]c2ccccc12)NC(=O)[C@@H](N)C(C)C)C(=O)N[C@@H](Cc1ccc(O)cc1)C(=O)N[C@@H](CC(N)=O)C(=O)N[C@@H](CCCN=C(N)N)C(N)=O` [VWKPPYLPRPRPPRRIYNR], for which the MIC worked out at 1.95 µM (≈ 4.8 µg/mL). This MIC and that of the compound before are within 1.5-fold of each other.

`CC[C@H](C)[C@H](NC(=O)[C@H](CCCN=C(N)N)NC(=O)[C@H](CCCN=C(N)N)NC(=O)[C@@H]1CCCN1C(=O)[C@@H]1CCCN1C(=O)[C@H](CCCN=C(N)N)NC(=O)[C@@H]1CCCN1C(=O)[C@H](CCCN=C(N)N)NC(=O)[C@@H]1CCCN1C(=O)[C@H](CC(C)C)NC(=O)[C@H](Cc1ccc(O)cc1)NC(=O)[C@@H]1CCCN1C(=O)[C@@H]1CCCN1C(=O)[C@H](CCCCN)NC(=O)[C@H](Cc1ccc(O)cc1)NC(=O)[C@@H](N)C(C)C)C(=O)N[C@@H](Cc1ccc(O)cc1)C(=O)N[C@@H](CC(N)=O)C(=O)N[C@@H](CCCN=C(N)N)C(N)=O` [VYKPPYLPRPRPPRRIYNR] returned an MIC of 1.97 µM (≈ 4.8 µg/mL). The MIC values of the last two compounds are within 1.5-fold of each other.

For the compound `CC[C@H](C)[C@H](NC(=O)[C@H](CCCN=C(N)N)NC(=O)[C@H](CCCN=C(N)N)NC(=O)[C@@H]1CCCN1C(=O)[C@@H]1CCCN1C(=O)[C@H](CCCN=C(N)N)NC(=O)[C@H](CCCN=C(N)N)NC(=O)[C@H](CCCN=C(N)N)NC(=O)[C@@H]1CCCN1C(=O)[C@H](CC(C)C)NC(=O)[C@H](Cc1ccc(O)cc1)NC(=O)[C@@H]1CCCN1C(=O)[C@H](CCCN=C(N)N)NC(=O)[C@H](CCCCN)NC(=O)[C@H](CC(=O)O)NC(=O)[C@@H](N)C(C)C)C(=O)N[C@@H](Cc1ccc(O)cc1)C(=O)N[C@@H](CC(N)=O)C(=O)N[C@@H](CCCN=C(N)N)C(N)=O` [VDKRPYLPRRRPPRRIYNR], the MIC worked out at 0.638 µM (≈ 1.6 µg/mL).

Regarding `CC[C@H](C)[C@H](NC(=O)[C@@H]1CCCN1C(=O)[C@H](CCCN=C(N)N)NC(=O)[C@@H]1CCCN1C(=O)[C@@H]1CCCN1C(=O)[C@@H](NC(=O)[C@@H]1CCCN1C(=O)[C@H](CCCN=C(N)N)NC(=O)[C@@H]1CCCN1C(=O)[C@H](CCCCN)NC(=O)[C@H](Cc1ccc(O)cc1)NC(=O)[C@H](CO)NC(=O)CNC(=O)[C@H](CCCCN)NC(=O)[C@H](CC(=O)O)NC(=O)[C@@H](N)C(C)C)[C@@H](C)O)C(=O)N[C@@H](Cc1ccc(O)cc1)C(=O)N[C@@H](CC(N)=O)C(=O)N[C@@H](CCCN=C(N)N)C(=O)N[C@@H](CC(N)=O)C(=O)O` [VDKGSYKPRPTPPRPIYNRN], the MIC was determined as 0.3 µM (≈ 0.707 µg/mL). Compared with the last compound, the MIC is about 2.1-fold lower.
